What was measured:
RPS6KA6A = assay: DSF assay; format: binding; settings: 20 µM compound
DYRK2A = biological target: T1, DYRK2A (Homo sapiens, UniProt Q92630); assay: DSF assay; format: binding; settings: 20 µM compound
T1 construct: purchased in-house DSF panel (SGC-style construct names; the trailing A/B is a construct suffix)
T1 sequence (Q92630 146-552): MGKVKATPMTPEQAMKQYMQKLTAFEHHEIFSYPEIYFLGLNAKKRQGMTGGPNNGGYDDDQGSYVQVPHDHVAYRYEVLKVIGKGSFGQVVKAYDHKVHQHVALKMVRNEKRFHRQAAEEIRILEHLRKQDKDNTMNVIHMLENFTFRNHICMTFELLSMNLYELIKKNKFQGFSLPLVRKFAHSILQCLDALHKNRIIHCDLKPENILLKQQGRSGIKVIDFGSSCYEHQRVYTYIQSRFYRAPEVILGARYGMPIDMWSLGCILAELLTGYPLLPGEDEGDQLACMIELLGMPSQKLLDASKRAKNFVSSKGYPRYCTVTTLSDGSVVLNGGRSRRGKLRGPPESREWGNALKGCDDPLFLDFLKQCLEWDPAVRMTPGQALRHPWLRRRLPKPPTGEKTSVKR

AAK1A = biological target: T2, AAK1A (Homo sapiens, UniProt Q2M2I8); assay: DSF assay; format: binding; settings: 20 µM compound
T2 construct: purchased in-house DSF panel (SGC-style construct names; the trailing A/B is a construct suffix)
T2 sequence (Q2M2I8 27-365): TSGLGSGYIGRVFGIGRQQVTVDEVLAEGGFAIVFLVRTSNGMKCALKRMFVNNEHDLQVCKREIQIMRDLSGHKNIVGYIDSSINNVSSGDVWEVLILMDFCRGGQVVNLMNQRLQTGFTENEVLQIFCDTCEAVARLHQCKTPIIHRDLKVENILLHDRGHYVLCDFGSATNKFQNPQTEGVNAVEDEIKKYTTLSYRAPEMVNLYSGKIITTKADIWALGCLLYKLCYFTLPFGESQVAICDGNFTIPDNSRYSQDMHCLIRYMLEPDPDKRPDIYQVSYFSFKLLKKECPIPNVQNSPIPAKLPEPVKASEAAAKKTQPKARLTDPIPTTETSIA

CHEK2A = biological target: T3, CHEK2A (Homo sapiens, UniProt O96017); assay: DSF assay; format: binding; settings: 20 µM compound
T3 construct: purchased in-house DSF panel (SGC-style construct names; the trailing A/B is a construct suffix)
T3 sequence (O96017 210-531): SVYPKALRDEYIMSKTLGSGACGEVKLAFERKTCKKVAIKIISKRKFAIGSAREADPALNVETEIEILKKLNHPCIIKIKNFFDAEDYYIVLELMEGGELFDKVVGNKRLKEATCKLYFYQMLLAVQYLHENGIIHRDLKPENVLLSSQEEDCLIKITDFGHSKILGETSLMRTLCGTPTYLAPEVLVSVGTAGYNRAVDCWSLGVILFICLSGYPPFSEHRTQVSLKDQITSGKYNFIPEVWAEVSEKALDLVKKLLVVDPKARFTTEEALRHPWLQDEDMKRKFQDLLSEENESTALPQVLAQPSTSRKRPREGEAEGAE

STK4A = biological target: T4, STK4A (Homo sapiens, UniProt Q13043); assay: DSF assay; format: binding; settings: 20 µM compound
T4 construct: purchased in-house DSF panel (SGC-style construct names; the trailing A/B is a construct suffix)
T4 sequence (Q13043 1-311): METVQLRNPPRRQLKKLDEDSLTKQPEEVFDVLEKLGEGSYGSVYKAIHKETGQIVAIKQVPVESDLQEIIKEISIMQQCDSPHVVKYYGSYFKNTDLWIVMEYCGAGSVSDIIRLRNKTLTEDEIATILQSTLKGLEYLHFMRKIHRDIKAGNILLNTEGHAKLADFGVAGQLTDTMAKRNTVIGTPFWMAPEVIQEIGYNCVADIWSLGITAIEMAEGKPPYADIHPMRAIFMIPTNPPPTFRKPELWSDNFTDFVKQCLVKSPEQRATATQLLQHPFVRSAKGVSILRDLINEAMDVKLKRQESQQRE

CAMK1GA = biological target: T5, CAMK1GA (Homo sapiens, UniProt Q96NX5); assay: DSF assay; format: binding; settings: 20 µM compound
T5 construct: purchased in-house DSF panel (SGC-style construct names; the trailing A/B is a construct suffix)
T5 sequence (Q96NX5 23-277): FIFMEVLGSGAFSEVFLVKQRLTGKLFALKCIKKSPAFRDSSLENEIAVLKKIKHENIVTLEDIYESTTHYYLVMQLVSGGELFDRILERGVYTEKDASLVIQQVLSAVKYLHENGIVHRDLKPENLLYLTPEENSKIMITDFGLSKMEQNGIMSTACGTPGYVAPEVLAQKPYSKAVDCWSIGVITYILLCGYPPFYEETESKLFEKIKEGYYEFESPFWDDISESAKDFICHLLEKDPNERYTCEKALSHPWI

[1] = biological target: T6, kinase protein levels in MCF-7 cells (Homo sapiens, UniProt A0A0B4J2F0); assay: TMT-labeled quantitative proteomics; format: cell-based; settings: protein PIGBOS1, MCF7, 1 µM
T6 construct: endogenous in cells; host or cells: MCF-7
T6 sequence (A0A0B4J2F0 1-54): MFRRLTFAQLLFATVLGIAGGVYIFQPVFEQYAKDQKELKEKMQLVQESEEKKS

| SMILES | ΔTm at 20 µM (DYRK2A) [°C] | ΔTm at 20 µM (AAK1A) [°C] | ΔTm at 20 µM (CHEK2A) [°C] | ΔTm at 20 µM (STK4A) [°C] | ΔTm at 20 µM (CAMK1GA) [°C] | P.Value (compound/DMSO) ([1]; set1.1) | log2FC (compound/DMSO) ([1]; set1.1) | P.Value (compound/DMSO) ([1]; set2) | log2FC (compound/DMSO) ([1]; set2) | ΔTm (RPS6KA6A) [°C] |
| --- | --- | --- | --- | --- | --- | --- | --- | --- | --- | --- |
| CC(C)(C)OC(=O)NCCOCCOCCOCCOCCC(=O)N1CCN(c2cc(Nc3cc(C4CC4)[nH]n3)nc(Nc3ccc(CC#N)cc3)n2)CC1 [4-L] | 7.18 | 13.2 | 6.36 | 9.02 | 0.98 |  |  |  |  | 0.07 |
| CC(C)(C)OC(=O)NCCCOCCOCCOCCCNC(=O)c1cc(Nc2cc(C3CC3)[nH]n2)nc(Nc2ccc(CC#N)cc2)n1 [5-L] | 7.69 | 12.1 | 5.41 | 7.44 | 3.37 |  |  |  |  | 0.35 |
| Cc1ncsc1-c1ccc(CNC(=O)[C@@H]2C[C@@H](O)CN2C(=O)[C@@H](NC(=O)CCOCCOCCOCCOCCN2CCN(c3ccc(Nc4ncc(Cl)c(Nc5ccccc5C(N)=O)n4)cc3)CC2)C(C)(C)C)cc1 [6-b] |  |  |  |  |  | 0.6062 | -0.04609 |  |  |  |
| CC(=O)N[C@H](C(=O)N1C[C@H](O)C[C@H]1C(=O)NCc1ccc(-c2scnc2C)cc1OCCOCCOCCOCCOCCC(=O)N1CCN(c2ccc(Nc3ncc(Cl)c(Nc4ccccc4C(N)=O)n3)cc2)CC1)C(C)(C)C [6-e] |  |  |  |  |  |  |  | 0.4063 | 0.08613 |  |
| CCOC(=O)c1cc(Nc2cc(C3CC3)[nH]n2)nc(Nc2ccc(CC#N)cc2)n1 [compound 5] | 7.58 | 10.1 | 4.17 | 8.99 | 1.53 |  |  |  |  | 0.34 |

The next lines start with results.

| ΔTm at 20 µM (DYRK2A) [°C] | ΔTm at 20 µM (AAK1A) [°C] | ΔTm at 20 µM (CHEK2A) [°C] | ΔTm at 20 µM (STK4A) [°C] | ΔTm at 20 µM (CAMK1GA) [°C] | P.Value (compound/DMSO) ([1]; set1.1) | log2FC (compound/DMSO) ([1]; set1.1) | P.Value (compound/DMSO) ([1]; set2) | log2FC (compound/DMSO) ([1]; set2) | SMILES | ΔTm (RPS6KA6A) [°C] |
| --- | --- | --- | --- | --- | --- | --- | --- | --- | --- | --- |
|  |  |  |  |  | 0.3761 | 0.1046 |  |  | Cc1ncsc1-c1ccc(CNC(=O)[C@@H]2C[C@@H](O)CN2C(=O)[C@@H](NC(=O)CCOCCOCCOCCN2CCN(c3cc(Nc4cc(C5CC5)[nH]n4)nc(Nc4ccc(CC#N)cc4)n3)CC2)C(C)(C)C)cc1 [4-a] |  |
|  |  |  |  |  | 0.533 | 0.05527 |  |  | Cc1ncsc1-c1ccc(CNC(=O)[C@@H]2C[C@@H](O)CN2C(=O)[C@@H](NC(=O)CCOCCOCCNC(=O)c2cc(Nc3cc(C4CC4)[nH]n3)nc(Nc3ccc(CC#N)cc3)n2)C(C)(C)C)cc1 [5-a] |  |
|  |  |  |  |  |  |  | 0.8938 | 0.0131 | CC(=O)N[C@H](C(=O)N1C[C@H](O)C[C@H]1C(=O)NCc1ccc(-c2scnc2C)cc1OCCOCCOCCOCCNC(=O)c1cc(Nc2cc(C3CC3)[nH]n2)nc(Nc2ccc(CC#N)cc2)n1)C(C)(C)C [5-b] |  |

Reference: PMC11851430, “Workflow for E3 Ligase Ligand Validation for PROTAC Development” (ACS Chemical Biology, 2025)
